# Entries after “also recorded” stand apart in the source; their conditions may differ.
# How the values were obtained:
# Assay type in all cases: cell-based, human
# cancer cell lines = assay: cell cycle and cell viability of cancer cell lines treated with AEB071; settings: 10 μM, 48 hours, data not shown
# APOBEC3B [1] = assay: inhibitor pretreatment before PMA-induced APOBEC3B upregulation in MCF10A cells (RT-qPCR)
# Procedure: PMA is a well-known agonist of PKC, but it also affects other cellular processes. To determine whether APOBEC3B induction by PMA occurs through PKC signal transduction or an alternative mechanism, we leveraged a panel of existing PKC inhibitors that each vary with respect to class selectivity. MCF10A cells were pre-treated for 30 minutes with varying concentrations of the pan-PKC inhibitor Gö6983 (Gschwendt et al., FEBS Lett. 392:77-80, 1996) and then treated for six hours with PMA (25 ng/mL). […] As additional controls, MCF10A cells were pretreated in parallel with the phosphoinositol 3 kinase (PI3K) inhibitor, LY294002, and the mitogen-activated protein kinase kinase (MEK) inhibitor, U0126, prior to PMA induction (FIGS. 2B and 2C).
# (§1) For induction experiments, 2.5×10^5 cells were plated in a 6-well plate 1 day prior to drug treatment. PMA was then added to the media and incubated at 37° C. with 5% CO2 for six hours unless otherwise indicated. Cells were harvested, RNA was extracted, and RT-qPCR was performed as previously reported (Refsland et al. 2010, Nucleic Acids Res 38:4274-4284). For experiments utilizing inhibitors, cells were pretreated with inhibitors 30 minutes prior to PMA induction (25 ng/mL). PMA (Thermo Fisher Scientific, Inc., Waltham, Mass.), cyclohexamide (Acros Organics, Thermo Fisher Scientific, Inc., Waltham, Mass.), Gö6983 (Cayman Chemical co., Ann Arbor, Mich.), LY294002 (EMD Chemicals, Merck KGaA, Darmstadt, Germany), U0126 (EMD Chemicals, Merck KGaA, Darmstadt, Germany), AEB071 (Medchemexpress, Monmouth Junction, N.J.), Gö6976 (Enzo Life Sciences, Inc., Farmingdale, N.Y.), BAY 11-7082 (R&D Systems, INc., Minneapolis, Minn.), and MG132 (Thermo Fisher Scientific, Inc., Waltham, Mass.) were stored as recommended. NIKi/Compound 31 was synthesized as described (Li et al., 2013, Bioorganic & Medicinal Chemistry Letters 23:1238-1244).
# APOBEC3B [2] = assay: endogenous APOBEC3B mRNA in cancer cell lines treated with AEB071 (RT-qPCR); settings: 10 μM, 48 hours
# Procedure: FIG. 4. The PKC-NFκB pathway drives endogenous APOBEC3B expression in cancer cells. (A) APOBEC3B mRNA levels in representative breast, ovarian, and head/neck cancer cell lines. mRNA expression is reported as the mean of three independent RT-qPCR reactions normalized to TBP (error bars report SD from triplicate assays). (B) Representative PKC inhibitor treated cancer cell line experiment. Each line was treated with AEB071 (10 μM) or vehicle control for 48 hours prior to analysis. The histogram reports APOBEC3B mRNA levels normalized to the vehicle treated control for each line.
# Four breast cancer cell lines, four ovarian cancer cell lines, four bladder cancer cell lines, and four head/neck cancer cell lines were analyzed to determine whether the constitutively high levels of endogenous APOBEC3B observed in many human cancer cell lines occurs through the PKC pathway. The selected cell lines expressed a 10-fold range of endogenous APOBEC3B mRNA levels (FIG. 4A).
# (§2) Each line was treated for 48 hours with 10 μM AEB071, and then APOBEC3B mRNA and protein levels were quantified by RT-qPCR and immunoblotting. […] This is important since higher concentrations of AEB071 are known to cause cell cycle perturbations and apoptosis in certain cell types.
# APOBEC3B [3] = assay: endogenous APOBEC3B protein in cancer cell lines treated with AEB071 (immunoblot); settings: 10 μM, 48 hours
# Procedure: as §2
# (§3) The development and validation of the rabbit monoclonal antibody (mAb) against APOBEC3B is as described elsewhere (U.S. Provisional Patent Application No. 62/186,109, filed Jun. 29, 2015). The mAb used (referred to as 5210-87-13) effectively binds endogenous APOBEC3B in a variety of assays. The anti-tubulin antibody was obtained from Covance Inc., Princeton, N.J.
# APOBEC family members = assay: mRNA levels of other APOBEC family members after PMA (RT-qPCR); settings: MCF10A cells, six hours
# Procedure: (§4) A panel of immortalized normal human epithelial cells lines and breast cancer cell lines was treated with PMA or equal amounts of DMSO as a negative control, and previously validated reverse transcription quantitative PCR (RT-qPCR) assays were used to measure mRNA levels of all eleven human APOBEC family members. APOBEC3B mRNA was induced specifically by PMA treatment of several lines including the immortalized normal breast epithelial cell line MCF10A (FIG. 1A and FIG. 6). Under standard cell culture conditions, MCF10A expresses low levels of APOBEC3B and APOBEC3F, even lower levels of APOBEC3G and APOBEC3H, high levels of APOBEC3C, and undetectable levels of all other APOBEC family members.
# For induction experiments, 2.5×10^5 cells were plated in a 6-well plate 1 day prior to drug treatment. PMA was then added to the media and incubated at 37° C. with 5% CO2 for six hours unless otherwise indicated. Cells were harvested, RNA was extracted, and RT-qPCR was performed as previously reported (Refsland et al. 2010, Nucleic Acids Res 38:4274-4284). For experiments utilizing inhibitors, cells were pretreated with inhibitors 30 minutes prior to PMA induction (25 ng/mL). […]
# APOBEC3B promoter region = assay: chromatin immunoprecipitation (ChIP) at the APOBEC3B promoter after PMA; settings: MCF10A cells, PMA 25 ng/mL two hours, ChIP-qPCR
# Procedure: We next performed a series of chromatin immunoprecipitation (ChIP) experiments to determine whether the canonical or noncanonical NFκB pathway is responsible for upregulating APOBEC3B. Primer sets were designed for each of the predicted NFκB binding sites near the APOBEC3B transcriptional start site, as well as a control set in the promoter region of NFKIB (FIG. 3E). ChIP was performed for RELA, RELB, RNA POL II (positive control), and isotype matched IgG (negative control) RELA, RELB, and RNA POL II were all bound to the NFKIB promoter following PMA treatment (FIG. 3F and FIG. 3G). In addition, we found RNA POL II strongly bound to the APOBEC3B gene near the transcriptional start site (FIG. 3F and FIG. 3G). We also found RELB bound both near the transcriptional start site and at sites 4 and 5, which are located in intron 2 and too close together to be distinguished by this procedure. Binding also may occur at lower levels at site 3 in intron 1, but the IgG signal was too high to distinguish background from actual binding. These ChIP data strongly implicate the noncanonical NFκB pathway, specifically RELB (and not RELA), in directly inducing APOBEC3B transcription in response to PMA activation of PKC.
# MCF10A cells were treated with either DMSO or 25 ng/mL PMA for two hours. […]
# APOBEC3B [4] = assay: PMA induction of APOBEC3B mRNA in MCF10A cells (RT-qPCR)
# Procedure: as §4
# (§5) APOBEC3B was induced with as little as 1 ng/mL PMA, and its induction was dose responsive and near maximal at 25 ng/mL PMA (FIG. 1B, histogram). APOBEC3B mRNA levels correlated with a rise in steady-state protein levels as measured by immunoblotting with a rabbit anti-APOBEC3B monoclonal antibody (described in U.S. Provisional Patent Application No. 62/186,109. filed Jun. 29, 2015) and with enzymatic activity as measured by a gel-based single-stranded DNA cytosine deamination assay (FIG. 1B). […] APOBEC3B protein and activity levels lagged shortly behind mRNA levels and persisted through the duration of the time course (FIG. 1C, immunoblot and polyacrylamide gel). APOBEC3B upregulation may be a direct result of signal transduction as the kinetics of upregulation were not affected by simultaneously treating cells with the protein translation inhibitor cyclohexamide (FIG. 1D).
# as §1
# APOBEC3B [5] = assay: single-stranded DNA cytosine deaminase activity of whole cell extracts after PMA; settings: MCF10A cell extracts
# Procedure: as §5
# Deaminase activity assays were performed as previously reported (Vieira et al., 2014, mBio 5(6):e02234-14). In short, 4 pmol of a fluorescently labeled oligo with a single target cytosine (5 -[…]-fluorescein, SEQ ID NO:2) was treated with cell extract containing 0.025 U/rxn UDG (New England BioLabs, Inc., Ipswich, Mass.), UDG buffer, and 1.75 U/rxn RNase A (Qiagen, Hilden, Germany) for two hours. […] Gels were scanned using a FujiFilm Image Reader FLA-7000.
# PKCα (PRKCA) = assay: RNA-seq of PKC isoform mRNA in MCF10A cells treated with PMA; settings: PMA vs vehicle
# Excerpt: PKCα mRNA levels were unchanged by PMA treatment, consistent with a mechanism by which PMA signals through pre-existing PKCα to ultimately stimulate APOBEC3B transcription (FIG. 2G). PKCα expression was depleted using three independent shRNA-encoding lentiviral constructs. […] Immunoblots confirmed PKCα knockdown and proportional reductions in APOBEC3B (FIG. 21). Altogether, the pharmacologic and genetic approaches provide a strong case for PKCα as the predominant PKC isoform driving PMA-mediated upregulation of APOBEC3B.
# (§6) Two sets of MCF10A cells in duplicate were treated every eight hours with media supplemented with PMA or DMSO for 48 hours. At 48 hours, RNA was extracted using an RNeasy Mini Kit (Qiagen, Hilden, Germany). Total RNA was submitted to the University of Minnesota Genomics Center for sequencing on the Illumina HiSeq 2000 platform. Raw reads were analyzed using both DESeq2 (Love et al., 2014, Genome Biol. 15:550) and the Tuxedo suite (Trapnell et al., 2012, Nat Protoc.7:562-578) to identify changes in mRNA expression in PMA treated versus untreated cells.
# APOBEC3B [6] = assay: APOBEC3B protein levels by immunoblotting after PMA; settings: MCF10A cells
# Procedure: as §5, §3
# [7] = tested on: RELA, NKB1, RELB and NFKB2; assay: RNA-seq of NFκB subunit mRNA in MCF10A cells treated with PMA; settings: PMA vs vehicle
# Procedure: Canonical signaling is known to require IKKβ, whereas non-canonical NFκB signaling is strictly dependent on IKKα-catalyzed phosphorylation of p100. To distinguish between these pathways, MCF10A cells were pretreated with a titration of TPCA-1 concentrations spanning the IC50 values of both proteins, and then PMA was used to induce APOBEC3B upregulation. […] As an additional control, TNFα, which is regulated by the canonical pathway, was analyzed.
# as §6
structure (smiles),measurement,setting,value
"CN1CCN(c2nc(C3=C(c4c[nH]c5ccccc45)C(=O)NC3=O)c3ccccc3n2)CC1 [AEB071, sotrastaurin]",effects on the cell cycle or cell viability,cancer cell lines,No effects on the cell cycle or cell viability
same,"potency relative to Gö6983, BIM-1, or Gö6983 in suppressing PMA-induced APOBEC3B",APOBEC3B [1],approximately 10 fold
same,suppression of PMA-induced APOBEC3B mRNA induction,"APOBEC3B [1]; 30-minute pretreatment with inhibitor, then PMA 25 ng/mL six hours",inhibited; also recorded: clear dose dependent response
same,concentration that caused complete suppression of APOBEC3B expression,"APOBEC3B [1]; pretreatment, PMA induced",500 nM
same,cell lines in which APOBEC3B mRNA levels were reduced by more than half,"APOBEC3B [2]; 16 breast, ovarian, bladder, head/neck cancer cell lines",7/16
same,APOBEC3B mRNA levels,APOBEC3B [2]; HCC1806 breast cancer cell line,reduced by more than half
same,APOBEC3B mRNA levels,APOBEC3B [2]; JSQ3 head/neck line,reduced by more than half
same,APOBEC3B mRNA levels,APOBEC3B [2]; MDA-MB-453 breast cancer cell line,reduced by more than half
same,APOBEC3B mRNA levels,APOBEC3B [2]; MDA-MB-468 breast cancer cell line,reduced by more than half
same,APOBEC3B mRNA levels,APOBEC3B [2]; OVCAR5 ovarian cancer cell line,reduced by more than half
same,APOBEC3B mRNA levels,APOBEC3B [2]; SQ-20B head/neck line,reduced by more than half
same,APOBEC3B mRNA levels,APOBEC3B [2]; TR146 head/neck line,reduced by more than half
same,changes of APOBEC3B protein levels,APOBEC3B [3],largely mirrored the mRNA results
CCCCCCCCCCCCCC(=O)O[C@@H]1[C@@H](C)[C@@]2(O)[C@@H](C=C(CO)C[C@]3(O)C(=O)C(C)=C[C@@H]23)[C@@H]2C(C)(C)[C@]12OC(C)=O [PMA],changes in the expression levels of other APOBEC family members,APOBEC family members,no detectable changes
same,recruitment of RELB and p105/p52 to the APOBEC3B promoter region,APOBEC3B promoter region,specifically and robustly recruited
same,time after PMA treatment at which maximal APOBEC3B mRNA levels were observed,APOBEC3B [4]; PMA 25 ng/ml,by three hours post-treatment
same,time after PMA treatment at which significant APOBEC3B mRNA induction was detected,APOBEC3B [4]; PMA 25 ng/ml,30 min
same,PMA concentration at which APOBEC3B induction was near maximal,APOBEC3B [4]; six hours,25 ng/mL
same,lowest PMA concentration that induced APOBEC3B,APOBEC3B [4]; six hours,1 ng/mL
same,APOBEC3B activity levels (DNA cytosine deaminase),APOBEC3B [5],dose-responsive increases
same,PKCα mRNA levels,PKCα (PRKCA),unchanged
same,APOBEC3B protein levels,APOBEC3B [6],dose-responsive increases
same,"mRNA levels of NFκB components RELA, NKB1, RELB, NFKB2",[7],unaffected
